The text below walks through data of patent publication US20130012432A1, “Peptides for Treatment of Obesity” (Novo Nordisk A/S, priority 2010, published 2013).

≈ marks a conversion by molar mass, not a printed value. Positions of bridges follow the written chain, without caps; N, C: chain ends. Non-standard residues stand in square brackets, D forms with d. Residues, ends and D or L forms follow the SMILES beside them. Groups on a side chain read outwards from the residue. *: point of attachment. Palmitoyl(16-(5-tetrazolyl)) = O=C(CCCCCCCCCCCCCCCc1nnn[nH]1)*; Lys(CH2CO2H)2 = N[C@@H](CCCCN(CC(=O)O)CC(=O)O)C(=O)O; C16 diacid = O=C(O)CCCCCCCCCCCCCCC(=O)*; hCys = N[C@@H](CCS)C(=O)O; Dab = NCC[C@H](N)C(=O)O; Dap = NC[C@H](N)C(=O)O; AEEA = NCCOCCOCC(=O)O

One data set in a line: physchem. The protocol:
From a stock solution in vehicle, either H2O or 10 mM phosphate, containing 1 mg (as weighed) compound per ml, 8-11 aliquots are withdrawn and pH-adjusted individually with HCl/NaOH, to cover the whole pH range.

A further data set concerns the target MC1 receptor (Homo sapiens, UniProt Q01726). The data set is described as follows: biochemical. An outline of the steps:
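Compounds competed against 125I-NDP-α-MSH (22 pM final) for binding to stably MC1-expressing BHK cell membranes, 30 °C for 90 min in HEPES pH 7.4 buffer with 0.1% HSA or ovalbumin. Bound ligand collected by filtration and counted; binding curves analysed by non-linear regression.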

The target in a further data set is human MC4 receptor (Homo sapiens, UniProt P32245). Put plainly: biochemical. The protocol:
Assay (V)—Melanocortin Receptor 4 (MC4) Binding Assay
In Vitro ^125NDP-α-MSH Binding to Recombinant BHK Cells Expressing Human MC4 Receptor (Filtration Assay).
The assay was performed in 5 ml minisorb vials (Sarstedt No. 55.526) or in 96-well filter-plates (Millipore MADVN 6550), and using BHK cells expressing the human MC4 receptor using BHK cells stably expressing the human MC4 receptor. The membranes were prepared from frozen or fresh cells that were homogenized in 20 mM HEPES pH 7.1, 5 mM MgCl2 and 1 mg/ml bacitracin and centrifuged at 15000 rpm at 4° C., 10 min in a Sorvall RC 5B plus, SS-34 rotor. The supernatant was discarded, and the pellets were re-suspended in buffer, homogenized and centrifuged two more times. The final pellets were resuspended in the buffer mentioned above, and the protein concentration was measured and adjusted with buffer to 14 to 17 mg/ml and the membrane preparation were kept at −80° C. until assay. The assay was run directly on a dilution of this cell membrane suspension, without any further preparation. The BHK cell membranes are kept at −80° C. until assay, and the assay is run directly on a dilution of this cell membrane suspension, without further preparation. The suspension is diluted to give maximally 10% specific binding, i.e. to approx. 50-100 fold dilution. The assay was performed in a total volume of 200 μl: 50 μl of cell suspension, 50 μl of ^125NDP-α-MSH (≈79 pM in final concentration), 50 μl of test compound and 50 μl binding buffer (pH 7) mixed and incubated for 2 h at 25° C. [binding buffer: 25 mM HEPES, pH 7.0, 1 mM CaCl2, 1 mM MgSO4, 1 mM EGTA, 0.02% Bacitracin, 0.005% Tween™ 20 and 0.1% HSA or, alternatively, 0.1% ovalbumin (Sigma; catalogue No. A-5503)]. Test compounds were dissolved in DMSO and diluted in binding buffer. Radiolabelled ligand and membranes were diluted in binding buffer. The incubation was stopped by dilution with 2×100 μl ice-cold 0.9% NaCl. The radioactivity retained on the filters was counted using a Cobra II auto gamma counter.
The data were analysed by non-linear regression analysis of binding curves, using the Windows™ program GraphPad™ Prism (GraphPad Software, USA).

Sequence of MC1 receptor (Q01726 whole entry): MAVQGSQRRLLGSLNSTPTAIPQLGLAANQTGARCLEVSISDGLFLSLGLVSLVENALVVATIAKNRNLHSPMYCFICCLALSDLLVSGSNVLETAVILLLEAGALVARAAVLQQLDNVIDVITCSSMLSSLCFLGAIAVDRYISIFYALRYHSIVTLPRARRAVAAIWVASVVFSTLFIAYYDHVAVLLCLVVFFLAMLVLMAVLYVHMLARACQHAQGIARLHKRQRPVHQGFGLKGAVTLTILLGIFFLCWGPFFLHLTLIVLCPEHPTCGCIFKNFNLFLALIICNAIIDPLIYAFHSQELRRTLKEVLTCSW
Sequence of human MC4 receptor (P32245 whole entry): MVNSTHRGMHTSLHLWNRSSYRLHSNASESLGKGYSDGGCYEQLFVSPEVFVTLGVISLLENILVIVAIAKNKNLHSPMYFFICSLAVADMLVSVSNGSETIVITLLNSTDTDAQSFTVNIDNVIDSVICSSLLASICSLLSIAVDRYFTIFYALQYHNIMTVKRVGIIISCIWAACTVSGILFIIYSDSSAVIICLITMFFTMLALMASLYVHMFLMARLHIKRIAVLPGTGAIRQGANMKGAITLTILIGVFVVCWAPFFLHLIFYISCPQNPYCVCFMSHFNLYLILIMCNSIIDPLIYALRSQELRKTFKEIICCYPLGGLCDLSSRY

In general, solubility refers to the dissolved amount per volume that the medium holds. What is called Ki is the dissociation constant of the complex between target and ligand, obtained from inhibition or displacement. A higher Ki goes with lower affinity. Take `CC(=O)N[C@H]1CCSSC[C@@H](C(=O)N2CCC[C@H]2C(=O)N2CCC[C@H]2C(=O)N[C@@H](CCCCN)C(=O)N[C@@H](CCC(=O)O)C(=O)N[C@@H](CCCCN(CC(=O)O)CC(=O)O)C(=O)N[C@@H](CCCCNC(=O)COCCOCCNC(=O)CCCCCCCCCCCCCCC(=O)O)C(N)=O)NC(=O)[C@H](Cc2c[nH]c3ccccc23)NC(=O)[C@H](CCCNC(=N)N)NC(=O)[C@@H](Cc2ccccc2)NC(=O)[C@H](Cc2c[nH]cn2)NC1=O` [Example 5, Ac-c[homoCys-His-D-Phe-Arg-Trp-Cys]-Pro-Pro-Lys-Glu-Lys(biscarboxymethyl)-Lys({2-[2-(15-carboxypentadecanoylamino)ethoxy]ethoxy}acetyl)-NH2] (Ac-[hCys]H[dF]RWCPPKE[Lys(CH2CO2H)2]K([AEEA-C16 diacid])-NH2; disulfide 1-6): the solubility came out at 486 µM (≈ 1040 µg/mL) in “physchem” (pH 3.8, Solubility Conc.); 452 µM (≈ 968 µg/mL) in the data set “physchem” (pH 4.6, Solubility Conc.); 233 µM (≈ 499 µg/mL) in “physchem” (pH 4.9, Solubility Conc.); 200 µM (≈ 428 µg/mL) in the data set “physchem” (pH 6.1, Solubility Conc.); 320 µM (≈ 685 µg/mL) in the data set “physchem” (pH 6.7, Solubility Conc.); 489 µM (≈ 1050 µg/mL) in “physchem” (pH 7.1, Solubility Conc.). In addition, the solubility worked out at 496 µM (≈ 1060 µg/mL) in “physchem” (pH 7.3, Solubility Conc.); 498 µM (≈ 1070 µg/mL) in the data set “physchem” (pH 7.7, Solubility Conc.); 509 µM (≈ 1090 µg/mL) in the data set “physchem” (pH 7.8, Solubility Conc.). For the same compound, the values for the Ki on MC1 receptor and on human MC4 receptor were greater than 10000 nM and 17 nM, respectively.

On to `CC(=O)N[C@H]1CCC(=O)NC[C@@H](C(=O)N2CCC[C@H]2C(=O)N2CCC[C@H]2C(=O)N[C@@H](CCCNC(=N)N)C(=O)N[C@@H](CC(=O)O)C(=O)N[C@@H](CCCCN(CC(=O)O)CC(=O)O)C(=O)N[C@@H](CCCCNC(=O)COCCOCCNC(=O)CCCCCCCCCCCCCCCc2nnn[nH]2)C(N)=O)NC(=O)[C@H](Cc2c[nH]c3ccccc23)NC(=O)[C@H](CCCNC(=N)N)NC(=O)[C@@H](Cc2ccccc2)NC(=O)[C@H](Cc2c[nH]cn2)NC1=O` [Example 6, Ac-c[Glu-His-D-Phe-Arg-Trp-Dap]-Pro-Pro-Arg-Asp-Lys(biscarboxymethyl)-Lys[(2-{2-[16-(tetrazol-5-yl)hexadecanoylamino]ethoxy}ethoxy)acetyl]-NH2] (Ac-EH[dF]RW[Dap]PPRD[Lys(CH2CO2H)2]K([AEEA-Palmitoyl(16-(5-tetrazolyl))])-NH2; lactam 1-6), for which the solubility in “physchem” (pH 5.9, Solubility Conc.) came to 23 µM (≈ 50 µg/mL); in “physchem” (pH 6.3, Solubility Conc.), 24 µM (≈ 52.1 µg/mL); in “physchem” (pH 6.9, Solubility Conc.), 44 µM (≈ 95.6 µg/mL); in the data set “physchem” (pH 7.2, Solubility Conc.) it was 82 µM (≈ 178 µg/mL); in the data set “physchem” (pH 7.4, Solubility Conc.), 208 µM (≈ 452 µg/mL); in “physchem” (pH 7.5, Solubility Conc.) it was 270 µM (≈ 587 µg/mL). Besides, the solubility was 290 µM (≈ 630 µg/mL) in “physchem” (pH 7.6, Solubility Conc.); 254 µM (≈ 552 µg/mL) in the data set “physchem” (pH 7.8, Solubility Conc.); 280 µM (≈ 608 µg/mL) in “physchem” (pH 8.1, Solubility Conc.). Besides, the inhibitory constant (Ki) was greater than 10000 nM on MC1 receptor and 13 nM on human MC4 receptor.

For `CC(=O)N[C@H]1CCNC(=O)CC[C@@H](C(=O)N2CCC[C@H]2C(=O)N2CCC[C@H]2C(=O)N[C@@H](CCCNC(=N)N)C(=O)N[C@@H](CC(=O)O)C(=O)N[C@@H](CCCCN(CC(=O)O)CC(=O)O)C(=O)N[C@@H](CCCCNC(=O)COCCOCCNC(=O)CCCCCCCCCCCCCCCc2nnn[nH]2)C(N)=O)NC(=O)[C@H](Cc2c[nH]c3ccccc23)NC(=O)[C@H](CCCNC(=N)N)NC(=O)[C@@H](Cc2ccccc2)NC(=O)[C@H](Cc2c[nH]cn2)NC1=O` [Example 23, Ac-c[Dab-His-D-Phe-Arg-Trp-Glu]-Pro-Pro-Arg-Asp-Lys(biscarboxymethyl)-Lys[(2-{2-[16-(tetrazol-5-yl)hexadecanoylamino]ethoxy}ethoxy)acetyl]-NH2] (Ac-[Dab]H[dF]RWEPPRD[Lys(CH2CO2H)2]K([AEEA-Palmitoyl(16-(5-tetrazolyl))])-NH2; lactam 1-6), the solubility in the data set “physchem” (pH 4.7, Solubility Conc.) was 73 µM (≈ 160 µg/mL); in “physchem” (pH 6.1, Solubility Conc.) it was 34 µM (≈ 74.3 µg/mL); in the data set “physchem” (pH 6.6, Solubility Conc.) it was 38 µM (≈ 83.1 µg/mL); in “physchem” (pH 6.9, Solubility Conc.), 45 µM (≈ 98.4 µg/mL); in the data set “physchem” (pH 7.2, Solubility Conc.), 76 µM (≈ 166 µg/mL); in the data set “physchem” (pH 7.4, Solubility Conc.) it was 145 µM (≈ 317 µg/mL). In addition, the solubility is 229 µM (≈ 501 µg/mL) in “physchem” (pH 7.6, Solubility Conc.); 295 µM (≈ 645 µg/mL) in “physchem” (pH 7.7, Solubility Conc.); 300 µM (≈ 656 µg/mL) in “physchem” (pH 7.9, Solubility Conc.). The Ki at MC1 receptor was greater than 10000 nM; at human MC4 receptor, 107 nM.
